Measured values published in patent US12338266B2 (GENETIC S.P.A., priority 2019, dated 2025).
“Also recorded” adds a separate entry of the source.

What was measured:
Format in all cases: in vivo, Balb/c mice
[1] = tested on: mice with OVA-induced allergic asthma; assay: Total and differential leukocyte counts in BAL fluid (Protocol-2)
Procedure: Male Balb/c SPF mice (26*2 g, 6 week-old) were purchased from the animal house facilities at the Faculty of Medicine (University of Sāo Paulo, Brazil). They were group-housed in a temperature-controlled room at 22° C. with a 12/12-hour light/dark cycle and allowed free access to food and water. The study is in agreement with the Ethical Principles for Animal Research established by the Brazilian College for Animal Experimentation (COBEA). According to the internal laboratory rules, euthanasia will be performed if severe distress related to the test agents developed during the experiment. Mice were sensitized with two subcutaneous injections of 0.2 ml of OVA/Al(OH)3, with an interval of 7 days (Sham animals received the Al(OH)3 suspension in PBS with no OVA). Chicken egg-white ovalbumin (OVA; grade V, cat. A5503, Sigma Chemical Co., St. Louis, Mo.) was dissolved in sterile phosphate buffered saline (PBS) solution (50 μg/ml) and Al(OH)3 was added (at 8 mg/ml). This mix was used to induce the allergic sensitization of the animals by subcutaneous injection. OVA was dissolved at 1% in sterile PBS solution and this solution was nebulized (as the immunological challenges). Seven days after the second sensitization (i.e., 3rd week), the animals were nebulized twice a week with the 1% OVA solution (Sham and untreated OVA groups were nebulized with PBS) during 20 minutes for the next 4 weeks. Thirty minutes before the challenges (OVA nebulization) and daily during the next 4 weeks, mice were intra-nasally treated (10 μl/animal as 5 μl/nostril) with the respective compounds/vehicle. […] Animals were killed at selected time points by overdose of enflurane and BAL and blood collected.
After Penh evaluation, the mice were anesthetized with inhaled isofluorane (5% v/v in O2) and blood samples were collected from the descending abdominal aorta. The mice were then euthanized by exsanguination and bronchoalveolar lavage (BAL) was performed by exposing and cannulating the trachea with a polyethylene tube (1 mm outer diameter) connected to a syringe. The lungs were washed by flushing 300 μL of heparin-containing PBS solution (20 UI/mL). The retrieved BAL lavage aliquots were obtained and the same procedure was repeated four additional times. The samples were centrifuged (1000 g for 10 min) and the cell pellet was resuspended in 200 μL of PBS solution, Total cell counts were determined using a Neubauer chamber, and differential counting was carried out in cytospin (Fanem Mod 2400; Sāo Paulo, Brazil) preparations stained with May-Grünwald dye. Leukocytes were classified based on morphological criteria.

[2] = tested on: mice with OVA-induced allergic asthma; assay: Bronchial reactivity to carbachol, isolated bronchi of OVA-sensitized mice (Protocol-1)
Procedure: Balb/c mice (8-9 weeks old, Charles River, Calco, Italy) were housed in the animal care facility at the Department of Pharmacy of the University of Naples. […] All animals were allowed to acclimate for four days prior to experiments and were subjected to 12 h light-12 h dark schedule. Each mouse was assigned an identity number and randomtzed to different groups so that all experiments were carried out in a blinded manner. The experimental procedures were approved by the Italian Ministry according to International and National law and policies (EU Directive 2010/63/EU and Italian DL 26/2014 for animal experiments, ARRIVE guidelines and the Basel declaration including the 3R concept). Animal studies are reported in compliance with the ARRIVE guidelines. Balb/c mice is the most widely mouse strain used to study asthma-like features in vivo and to investigate the undedying molecular and cellular mechanisms of allergen sensitization. Mice were treated subcutaneously (s.c.) with 0.4 mL (100 μg) of ovalbumin (OVA) complexed with alum (13 mg mL^−1) (OVA group) at day 0 and 7. Chicken egg-white ovalbumin (OVA: grade V. cat. A5503, Sigma Chemical Co., St. Louis, MO) was dissolved in sterile phosphate buffered saline (PBS) solution (250 μg/1 ml) and Al(OH)3 was added (at 13 mg/ml). This mix was used to induce the allergic sensitization of the animals by subcutaneous injection. OVA was dissolved at 3% in sterile PBS solution and this solution was nebulized (as the immunological challenges). At day 21 mice were exposed to OVA challenge for three days and then sacrificed. […] A group of animals was treated s.c. with saline (vehicle group). […] Animals were killed at selected time points by overdose of enflurane and bronchi and blood collected. Main bronchi were rapidly dissected and cleaned from fat and connective tissue. […] Results were expressed as dyne/mg tissue. In another set of experiments on bronchi pre-contracted with carbachol and salbutamol-induced relaxation was assessed.

[3] = tested on: mice with OVA-induced allergic asthma; assay: Salbutamol-induced relaxation of carbachol pre-contracted bronchi of OVA-sensitized mice (Protocol-1)
Procedure: Balb/c mice (8-9 weeks old, Charles River, Calco, Italy) were housed in the animal care facility at the Department of Pharmacy of the University of Naples. […] All animals were allowed to acclimate for four days prior to experiments and were subjected to 12 h light-12 h dark schedule. Each mouse was assigned an identity number and randomtzed to different groups so that all experiments were carried out in a blinded manner. The experimental procedures were approved by the Italian Ministry according to International and National law and policies (EU Directive 2010/63/EU and Italian DL 26/2014 for animal experiments, ARRIVE guidelines and the Basel declaration including the 3R concept). Animal studies are reported in compliance with the ARRIVE guidelines. Balb/c mice is the most widely mouse strain used to study asthma-like features in vivo and to investigate the undedying molecular and cellular mechanisms of allergen sensitization. Mice were treated subcutaneously (s.c.) with 0.4 mL (100 μg) of ovalbumin (OVA) complexed with alum (13 mg mL^−1) (OVA group) at day 0 and 7. Chicken egg-white ovalbumin (OVA: grade V. cat. A5503, Sigma Chemical Co., St. Louis, MO) was dissolved in sterile phosphate buffered saline (PBS) solution (250 μg/1 ml) and Al(OH)3 was added (at 13 mg/ml). This mix was used to induce the allergic sensitization of the animals by subcutaneous injection. OVA was dissolved at 3% in sterile PBS solution and this solution was nebulized (as the immunological challenges). At day 21 mice were exposed to OVA challenge for three days and then sacrificed. […] A group of animals was treated s.c. with saline (vehicle group). […] Animals were killed at selected time points by overdose of enflurane and bronchi and blood collected. Main bronchi were rapidly dissected and cleaned from fat and connective tissue. Rings of 1-2 mm length were cut and mounted in 2.5 mL isolated organ baths containing Krebs solution, at 37° C., oxygenated (95% O2 and 5% CO2), and connected to an isometric force transducer (type 7000. Ugo Basile. Cornerio, Italy) associated to a Powerlab 800 (AD Instruments). Rings were initially stretched until a resting tension of 0.5 g and allowed to equilibrate for at least 30 min. In each experiment bronchial rings were previously challenged with acetylcholine (10^−6 M) until a reproducible response curve was obtained. Subsequently, after tissue washing, a cumulative concentration response curve to carbachol (10^−9-3×10^−6 M) was performed. Results were expressed as dyne/mg tissue. In another set of experiments on bronchi pre-contracted with carbachol and salbutamol-induced relaxation was assessed.

CC(C)(O)c1ccccc1CCC(SCC1(CC(=O)OCC(=O)[C@@]23O[C@H](C4CCCCC4)O[C@@H]2C[C@H]2[C@@H]4CCC5=CC(=O)C=C[C@]5(C)[C@H]4[C@@H](O)C[C@@]23C)CC1)c1cccc(/C=C/c2ccc3ccc(Cl)cc3n2)c1 (stereo partly drawn) [montelukast desisobutyryl-ciclesonide ester]
inhibition of eosinophil recruitment to the lungs at the lowest dose tested ([1]; 10 nmol/animal/day, comparable with ciclesonide alone at 100 nmol/animal/day): significant effects
BAL eosinophils (OVA-induced increase) ([1]; 10, 30 and 100 nmol/animal/day intranasal, 4 weeks, FIG. 10): did not reach statistical significance; also recorded: lower number of eosinophils
control of bronchial hyper-reactivity (response to carbachol) ([2]; 0.5, 1 and 2 mg/Kg i.p. 1 hour before OVA challenge, FIG. 5A): good control of bronchial hyper-reactivity at all doses tested
control of hyper-reactivity to carbachol, compared to ciclesonide ([2]; ester 2 mg/kg i.p. vs ciclesonide 1 mg/kg, FIG. 6A): major efficacy in the control of the development of hyper-reactivity to carbachol
effect on bronchial hyper-responsiveness, ester versus montelukast ([2]; ester 2 mg/kg i.p. vs montelukast 1 mg/kg, FIG. 7A): comparable
salbutamol-induced relaxation compared to vehicle ([3]; 2 mg/Kg i.p.): further increase in salbutamol-induced relaxation when compared to vehicle
salbutamol-induced bronchial relaxation ([3]; 0.5, 1 and 2 mg/Kg i.p., FIG. 5B): rescued salbutamol ability to inducing bronchial relaxation at all doses tested
preserving salbutamol induced bronchial relaxation, compared to ciclesonide ([3]; ester 2 mg/kg i.p. vs ciclesonide 1 mg/kg): significant major efficacy in preserving salbutamol induced bronchial relaxation
preserving salbutamol relaxation, ester versus montelukast ([3]; ester 2 mg/kg i.p. vs montelukast 1 mg/kg, FIG. 7B): significantly enhanced
